Literature values, collected in patent US20230165862A1, “CANCER THERAPY USING 3,5-DISUBSTITUTED BENZENE ALKYNYL COMPOUND AND MEK INHIBITOR” (TAIHO PHARMACEUTICAL CO., LTD., priority 2020, published 2023).

Assays:
[1] = human; 30 mg or more per dose twice daily
[2] = human; steady-state PK, dose of 40 mg in Stage 1 (21/7), once daily
[3] = human; 0.5 mg or more per dose once daily

Compound: Cn1cnc2c(F)c(Nc3ccc(Br)cc3F)c(C(=O)NOCCO)cc21 [Binimetinib, 5-[(4-bromofluorophenyl)amino]-4-fluoro-N-(2-hydroxyethoxy)-1-methyl-1H-benzimidazole-6-carboxamide]
- Time a blood concentration of 18.45 ng/mL (corresponds to 100 nM) is achieved [1]: more than 8 hours

Compound: O=C(c1ccc(F)c(F)c1Nc1ccc(I)cc1F)N1CC(O)([C@@H]2CCCCN2)C1 [Cobimetinib, [3,4-difluoro-2-[(2-fluoro-4-iodophenyl)amino]phenyl][3-hydroxy-3-[(2S)-2-piperidinyl]-1-azetidinyl]methanone]
- Time a concentration higher than 53 ng/mL (corresponds to 100 nM) is achieved [2]: 14 h

Compound: CC(=O)Nc1cccc(-n2c(=O)n(C3CC3)c(=O)c3c(Nc4ccc(I)cc4F)n(C)c(=O)c(C)c32)c1 [Trametinib, N-(3-{3-cyclopropyl-5-[(2-fluoro-4-iodophenyl)amino]-6,8-dimethyl-2,4,7-trioxo-3,4,6,7-tetrahydropyrido[4,3-d]pyrimidin-1(2H)-yl}phenyl)acetamide]
- Time a blood concentration of 1.3 ng/mL (corresponds to 10 nM) is achieved [3]: ≥ 24 h
